Results: patent US9884063B2, “Amido-substituted azole compounds” (Bayer Pharma Aktiengesellschaft, priority 2014, dated 2018)

What follows are compounds tested against T1, TNKS2 (Homo sapiens, UniProt Q9H2K2) (assay: Modified TNKS2 Assay 3 (BPS kit #80578, biotin-NAD+, 96 well)). Conditions: human TNKS2, BPS kit #80578, 96 well.
T1 sequence (Q9H2K2 1-1166): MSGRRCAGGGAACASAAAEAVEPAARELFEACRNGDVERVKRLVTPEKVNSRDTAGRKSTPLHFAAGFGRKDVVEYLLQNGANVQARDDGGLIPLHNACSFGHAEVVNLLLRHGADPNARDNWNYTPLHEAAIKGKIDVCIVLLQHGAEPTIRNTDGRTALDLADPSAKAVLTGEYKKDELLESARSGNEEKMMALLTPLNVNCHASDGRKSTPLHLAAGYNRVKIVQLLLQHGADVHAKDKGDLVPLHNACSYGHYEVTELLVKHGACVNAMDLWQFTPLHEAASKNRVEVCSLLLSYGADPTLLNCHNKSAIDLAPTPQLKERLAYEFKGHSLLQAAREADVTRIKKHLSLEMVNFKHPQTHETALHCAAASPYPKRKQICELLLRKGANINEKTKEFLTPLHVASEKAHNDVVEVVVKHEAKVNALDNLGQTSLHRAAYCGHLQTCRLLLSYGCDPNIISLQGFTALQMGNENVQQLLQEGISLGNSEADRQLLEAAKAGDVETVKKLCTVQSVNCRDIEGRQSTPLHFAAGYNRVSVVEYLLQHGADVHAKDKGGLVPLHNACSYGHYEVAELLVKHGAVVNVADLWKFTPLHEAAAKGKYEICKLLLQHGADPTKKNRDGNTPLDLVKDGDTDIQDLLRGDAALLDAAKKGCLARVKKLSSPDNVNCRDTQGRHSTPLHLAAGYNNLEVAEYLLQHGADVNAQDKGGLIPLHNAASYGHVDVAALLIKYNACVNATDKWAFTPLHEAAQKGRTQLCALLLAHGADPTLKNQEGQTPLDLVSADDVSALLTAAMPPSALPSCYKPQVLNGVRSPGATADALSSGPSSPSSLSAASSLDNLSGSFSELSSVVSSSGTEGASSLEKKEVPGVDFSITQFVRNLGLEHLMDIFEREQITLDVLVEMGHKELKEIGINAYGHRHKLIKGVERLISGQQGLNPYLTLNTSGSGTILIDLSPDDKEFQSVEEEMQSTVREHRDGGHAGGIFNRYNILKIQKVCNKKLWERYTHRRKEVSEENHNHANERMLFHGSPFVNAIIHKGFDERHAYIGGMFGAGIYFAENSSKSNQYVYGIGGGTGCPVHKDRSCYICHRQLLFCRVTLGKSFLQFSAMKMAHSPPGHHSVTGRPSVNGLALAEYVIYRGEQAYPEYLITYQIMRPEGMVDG
Assay type: biochemical
Protocol: The potency of the compounds against human TNKS2 according to the invention was assessed using a commercially available biotin/streptavidin binding assay kits from BPS Bioscience, San Diego, USA (Catalog #80578 for TNKS2). The incorporation of a biotin-labeled NAD+ during the […] catalyzed ribosylation of a suitable protein substrate was detected using with a streptavidin-HRP coupled chemi-luminescent readout. The intensity of the readout signal is proportional to the incorporated NAD^+. Inhibition of TNKS2 leads to a decreased incorporation of NAD^+ and consequently to a lower readout signal intensity in the corresponding TNKS2 assays. The concentration of a test compound that inhibits the enzyme activity by 50% (corresponds to half of the normed readout signal intensity) is reported as IC50. The assay conducted in a 96 well MTP format according to the manufacturer's protocol and using a BMG Pherastar MTP reader [BMG-Labtech, Offenburg, Germany].

Row | IC50 [nM] | SMILES
1 | 60 | CNC(=O)c1nc[nH]c1C(=O)Nc1ccc(NC(=O)c2ccc(F)cc2Cl)cc1 [Example 12, N^5-{4-[(2-chloro-4-fluorobenzoyl)amino]phenyl}-N^4-methyl-1H-imidazole-4,5-dicarboxamide]
2 | 40 | CNC(=O)c1nc[nH]c1C(=O)Nc1ccc(NC(=O)c2ccc(F)cc2Cl)nc1 [Example 16, N^5-{6-[(2-chloro-4-fluorobenzoyl)amino]pyridin-3-yl}-N^4-methyl-1H-imidazole-4,5-dicarboxamide]
3 | 130 | O=C(Nc1ccc(NC(=O)c2[nH]cnc2C(=O)NCC(F)(F)F)cc1)c1ccc(F)cc1Cl [Example 30, N^4-{4-[(2-chloro-4-fluorobenzoyl)amino]phenyl}-N^5-(2,2,2-trifluoroethyl)-1H-imidazole-4,5-dicarboxamide]
4 | 230 | CNC(=O)c1nc[nH]c1C(=O)Nc1ccc(NC(=O)c2c(F)cc(F)cc2Cl)cc1 [Example 118, N^5-{4-[(2-chloro-4,6-difluorobenzoyl)amino]phenyl}-N^4-methyl-1H-imidazole-4,5-dicarboxamide]
5 | < 0.5 | O=C(NCCN1CCCCC1)c1nc[nH]c1C(=O)Nc1ccc(NC(=O)c2c(F)cc(F)cc2Cl)cc1 [Example 119, N^5-{4-[(2-chloro-4,6-difluorobenzoyl)amino]phenyl}-N^4-[2-(piperidin-1-yl)ethyl]-1H-imidazole-4,5-dicarboxamide]
6 | 110 | NC(=O)c1nc[nH]c1C(=O)Nc1ccc(NC(=O)c2ccc(F)cc2Cl)cc1 [Example 121]
7 | 1 | CC1CCN(CCNC(=O)c2nc[nH]c2C(=O)Nc2ccc(NC(=O)c3ccc(F)cc3Cl)cc2)CC1 [Example 126, N^5-{4-[(2-chloro-4-fluorobenzoyl)amino]phenyl}-N^4-[2-(4-methylpiperidin-1-yl)ethyl]-1H-imidazole-4,5-dicarboxamide]
8 | 170 | COCCNC(=O)c1[nH]cnc1C(=O)Nc1ccc(NC(=O)c2ccc(F)cc2Cl)cc1 [Example 130, N^4-{4-[(2-chloro-4-fluorobenzoyl)amino]phenyl}-N^5-(2-methoxyethyl)-1H-imidazole-4,5-dicarboxamide]
9 | 3 | CC1CCCN(CCNC(=O)c2[nH]cnc2C(=O)Nc2ccc(NC(=O)c3ccc(F)cc3Cl)cc2)C1 (centres unmarked) [Example 208, N^4-{4-[(2-chloro-4-fluorobenzoyl)amino]phenyl}-N^5-[2-(3-methylpiperidin-1-yl)ethyl]-1H-imidazole-4,5-dicarboxamide]
10 | 0.9 | O=C(Nc1ccc(NC(=O)c2nc[nH]c2C(=O)NCCN2CCCC(F)C2)cc1)c1ccc(F)cc1Cl (centres unmarked) [Example 226, N^4-{4-[(2-chloro-4-fluorobenzoyl)amino]phenyl}-N^5-[2-(3-fluoropiperidin-1-yl)ethyl]-1H-imidazole-4,5-dicarboxamide]
11 | 80 | O=C(Nc1ccc(NC(=O)c2nc[nH]c2C(=O)NC2CCOC2)cc1)c1ccc(F)cc1Cl (centres unmarked) [Example 236, N^4-{4-[(2-chloro-4-fluorobenzoyl)amino]phenyl}-N^5-(tetrahydrofuran-3-yl)-1H-imidazole-4,5-dicarboxamide]
12 | 30 | CNC(=O)c1nc[nH]c1C(=O)Nc1ccc(NC(=O)c2cc(OC)c(OC)cc2Cl)cc1 [Example 240, N^5-{4-[(2-chloro-4,5-dimethoxybenzoyl)amino]phenyl}-N^4-methyl-1H-imidazole-4,5-dicarboxamide]
13 | 120 | CNC(=O)c1nc[nH]c1C(=O)Nc1ccc(NC(=O)c2cc(F)c(F)cc2Cl)cc1 [Example 242, N^5-{4-[(2-chloro-4,5-difluorobenzoyl)amino]phenyl}-N^4-methyl-1H-imidazole-4,5-dicarboxamide]
14 | 30 | CNC(=O)c1nc[nH]c1C(=O)Nc1ccc(NC(=O)c2ccc(C)cc2Cl)cc1 [Example 244, N^5-{4-[(2-chloro-4-methylbenzoyl)amino]phenyl}-N^4-methyl-1H-imidazole-4,5-dicarboxamide]
